Consider 5 compounds from patent publication US11161855B2, “Tricyclic fused thiophene derivatives as JAK inhibitors” (Incyte Corporation, priority 2012, dated 2021).

Common to all, as to format: biochemical
Assay [1] addresses human JAK1 (a.a. 837-1142) (Homo sapiens, UniProt P23458). The assay can be described thus: In vitro JAK kinase assay (HTRF), JAK1. Particulars: 1 mM ATP. A digest of the protocol:
(§1)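 Baculovirus-expressed catalytic domains (JAK1 a.a. 837-1142, JAK2 a.a. 828-1132) phosphorylate 500 nM biotinylated peptide at 1 mM ATP, Tris pH 7.8, 1 h at room temperature. EDTA stop and HTRF detection with Eu-Py20/SA-APC; IC50 values derived.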
For orientation: TR-FRET usually uses a lanthanide donor and a delayed reading to cut background.

Assay [2] deals with human JAK1 (a.a. 837-1142). The assay can be described thus: In vitro JAK kinase assay (HTRF), JAK1. Particulars: ratio of IC50s, 1 mM ATP. A digest of the protocol:
as §1

For assay [3], the target named is human JAK2 (a.a. 828-1132) (Homo sapiens (Human), UniProt O60674). The assay can be described thus: In vitro JAK kinase assay (HTRF), JAK2. Also noted: key to JAK2 IC50 (nM): + indicates an IC50 of ≤100 nM; ++ indicates an IC50 of ≤1000 nM; +++ indicates an IC50 of ≤2000 nM; ++++ indicates an IC50 of >2000 nM; +++++ indicates that the IC50 was greater than the highest concentration tested. Particulars: 1 mM ATP. Here is the method:
Compounds herein were tested for inhibitory activity of JAK targets according to the following in vitro assay described in Park et al., Analytical Biochemistry 1999, 269, 94-104. The catalytic domains of human JAK1 (a.a. 837-1142), JAK2 (a.a. 828-1132) and JAK3 (a.a. 781-1124) were expressed using baculovirus in insect cells and purified. The catalytic activity of JAK1, JAK2 or JAK3 was assayed by measuring the phosphorylation of a biotinylated peptide. The phosphorylated peptide was detected by homogenous time resolved fluorescence (HTRF). IC50s of compounds were measured for each kinase in the 40 μL reactions that contain the enzyme, ATP and 500 nM peptide in 50 mM Tris (pH 7.8) buffer with 100 mM NaCl, 5 mM DTT, and 0.1 mg/mL (0.01%) BSA. For the 1 mM IC50 measurements, ATP concentration in the reactions was 1 mM. Reactions were carried out at room temperature for 1 hour and then stopped with 20 μL 45 mM EDTA, 300 nM SA-APC, 6 nM Eu-Py20 in assay buffer (Perkin Elmer, Boston, Mass.). Binding to the Europium labeled antibody took place for 40 minutes and HTRF signal was measured on a PHERA star plate reader (BMG, Cary, N.C.). The Example compounds were each tested in the Example A assay (see Table 1 for data for the compounds of the examples as tested by the assay of Example A at 1 mM ATP).

Some results are limits rather than exact numbers.

Chain of human JAK2 (a.a. 828-1132) (O60674 828-1132): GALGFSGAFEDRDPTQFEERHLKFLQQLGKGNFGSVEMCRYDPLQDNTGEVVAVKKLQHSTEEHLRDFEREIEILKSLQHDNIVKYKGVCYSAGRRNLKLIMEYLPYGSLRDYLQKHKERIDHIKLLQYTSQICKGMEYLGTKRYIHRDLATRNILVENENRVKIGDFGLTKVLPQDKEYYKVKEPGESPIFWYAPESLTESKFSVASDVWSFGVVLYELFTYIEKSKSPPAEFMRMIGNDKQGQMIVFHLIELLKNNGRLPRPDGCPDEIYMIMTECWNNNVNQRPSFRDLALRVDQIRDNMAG

`C[C@@H](O)c1nc2cnc3ccsc3c2n1[C@H]1CC[C@H](CC#N)[C@H](O)C1` (single isomer, unassigned) [36 (first peak)]: the IC50 (as a rule, the point on the concentration scale where inhibition reaches its midpoint) is at most 100 nM in assay [1] and over 2000 nM in assay [3]. Besides, the JAK2/JAK1 in assay [2] is over 10.

`C[C@@H](O)c1nc2cnc3ccsc3c2n1[C@@H]1CC[C@@H](CC#N)[C@@H](O)C1` (single isomer, unassigned) [36 (second peak)]: the values for the IC50 in assay [1] and in assay [3] were at most 100 nM and at most 1000 nM, respectively. The JAK2/JAK1 in assay [2] is over 10.

As to `C[C@@H](O)c1nc2cnc3ccsc3c2n1[C@H]1CC[C@H](CC#N)[C@@H](O)C1` (single isomer, unassigned) [37 (first peak)], the IC50 in assay [1] is at most 1000 nM. Moreover, in assay [2], the JAK2/JAK1 was over 10. Moreover, the “JAK2 IC50 (nM)” value in assay [3] is given as “+++++”.

`C[C@@H](O)c1nc2cnc3ccsc3c2n1[C@@H]1CC[C@@H](CC#N)[C@H](O)C1` (single isomer, unassigned) [37 (second peak)]: the IC50 in assay [1] was at most 100 nM; in assay [3], at most 1000 nM. Moreover, the JAK2/JAK1 in assay [2] was over 10.

For the compound `CCc1nc2cnc3ccsc3c2n1[C@H]1CC[C@H](CC#N)[C@@H](O)C1` (single isomer, unassigned) [40 (first peak)], the figures for the IC50 in assay [1] and in assay [3] were at most 100 nM and at most 1000 nM, respectively. In addition, the JAK2/JAK1 in assay [2] is reported as over 10.
